This test relates to H1650 cells. The test can be described thus: CellTiterGlo (CTG) cell viability, 3D, 120 h, H1650 (Example 8). Format: cell-based, human.
[1] abbreviates: Homo sapiens, NCI-H1650, H1650 3D, experiment n1, read-out: H1650 3D CTG IC50 n1.
The mark [2] stands for this setting: Homo sapiens, NCI-H1650, H1650 3D, experiment n2, read-out: H1650 3D CTG IC50 n2.
Where [3] appears, read: Homo sapiens, NCI-H1650, H1650 3D, mean of n1 and n2, read-out: H1650 3D CTG IC50 Mean of n1 and n2.

Usually IC50 stands for the midpoint of a concentration-inhibition curve.

Where two headings read alike, the source gives them in different places.

Consider `Cc1cc(N(C)c2ccc(-c3cnn(C[C@]45C[C@]6(C)C[C@](C)(C4)C[C@@](OCCNCCCO)(C6)C5)c3C)c(C(=O)O)n2)nnc1Nc1nc2ccccc2s1` [P26, 6-[[6-(1,3-benzothiazol-2-ylamino)-5-methyl-pyridazin-3-yl]-methyl-amino]-3-[1-[[3-[2-(3-hydroxypropylamino)ethoxy]-5,7-dimethyl-1-adamantyl]methyl]-5-methyl-pyrazol-4-yl]pyridine-2-carboxylic acid], for which the IC50 reads like this: under setting [1], 0.68 nM; under setting [2], 0.69 nM; under setting [3], 0.69 nM.
Regarding `Cc1c(Nc2nc3ccccc3s2)nnc2c1CCCN2c1ccc(-c2cnn(CC34CC5(C)CC(C)(C3)CC(OCCNCCC(=O)O)(C5)C4)c2C)c(C(=O)O)n1` [P71, 6-[3-(1,3-benzothiazol-2-ylamino)-4-methyl-6,7-dihydro-5H-pyrido[2,3-c]pyridazin-8-yl]-3-[1-[[3-[2-(2-carboxyethylamino)ethoxy]-5,7-dimethyl-1-adamantyl]methyl]-5-methyl-pyrazol-4-yl]pyridine-2-carboxylic acid], the IC50 is 16.3 nM under setting [1], 13.4 nM under setting [2] and 14.8 nM under setting [3].
As for `Cc1cc(N(C)c2nc(C(=O)O)c(CCCOc3ccc(C#CC(C)N(C)C)cc3F)s2)nnc1Nc1nc2ccccc2s1` (stereo not drawn) [P11, 2-[[6-(1,3-Benzothiazol-2-ylamino)-5-methyl-pyridazin-3-yl]-methyl-amino]-5-[3-[4-[3-(dimethylamino)but-1-ynyl]-2-fluoro-phenoxy]propyl]thiazole-4-carboxylic acid], the IC50 under setting [1] worked out at 0.7 nM, the IC50 under setting [2] came out at 1.2 nM and the IC50 under setting [3] came out at 0.95 nM.
Regarding `Cc1c(Nc2nc3ccccc3s2)nnc2c1CCCN2c1nc(C(=O)O)c(CCCOc2ccc(C#CCN(C)CC[C@H](O)CO)cc2F)s1` [P34, 2-[3-(1,3-benzothiazol-2-ylamino)-4-methyl-6,7-dihydro-5H-pyrido[2,3-c]pyridazin-8-yl]-5-[3-[4-[3-[[(3S)-3,4-dihydroxybutyl]-methyl-amino]prop-1-ynyl]-2-fluoro-phenoxy]propyl]thiazole-4-carboxylic acid], the IC50 reads like this: under setting [1], 0.65 nM; under setting [2], 0.87 nM; under setting [3], 0.76 nM.
Regarding `Cc1c(Nc2nc3ccccc3s2)nnc2c1CCCN2c1ccc(-c2cnn(CC34CC5(C)CC(C)(CC(CCCN(C)CCCC(=O)O)(C5)C3)C4)c2C)c(C(=O)O)n1` [P58, 6-[3-(1,3-benzothiazol-2-ylamino)-4-methyl-6,7-dihydro-5H-pyrido[2,3-c]pyridazin-8-yl]-3-[1-[[3-[3-[3-carboxypropyl(methyl)amino]propyl]-5,7-dimethyl-1-adamantyl]methyl]-5-methyl-pyrazol-4-yl]pyridine-2-carboxylic acid], the IC50 runs as follows: under setting [1], 5.73 nM; under setting [2], 9.08 nM; under setting [3], 7.41 nM.
`Cc1c(Nc2nc3ccccc3s2)nnc2c1CCCN2c1nc(C(=O)O)c(CCCOc2ccc(C#CCN3CCCCC3)cc2F)s1` [P18, 2-[3-(1,3-Benzothiazol-2-ylamino)-4-methyl-6,7-dihydro-5H-pyrido[2,3-c]pyridazin-8-yl]-5-[3-[2-fluoro-4-[3-(1-piperidyl)prop-1-ynyl]phenoxy]propyl]thiazole-4-carboxylic acid]: the IC50 under setting [1] worked out at 1.8 nM, the IC50 under setting [2] was 3.5 nM and the IC50 under setting [3] was found to be 2.65 nM.
Consider `Cc1ccc2sc(Nc3nnc4c(c3C)CCCN4c3ccc(-c4cnn(C[C@]56C[C@]7(C)C[C@](C)(C5)C[C@@](OCCN5CCCC5)(C7)C6)c4C)c(C(=O)O)n3)nc2c1` [P42, 3-[1-[[3,5-dimethyl-7-(2-pyrrolidin-1-ylethoxy)-1-adamantyl]methyl]-5-methyl-pyrazol-4-yl]-6-[4-methyl-3-[(5-methyl-1,3-benzothiazol-2-yl)amino]-6,7-dihydro-5H-pyrido[2,3-c]pyridazin-8-yl]pyridine-2-carboxylic acid], for which the IC50 under setting [1] is 9.4 nM, the IC50 under setting [2] worked out at 12.9 nM and the IC50 under setting [3] turned out to be 11.2 nM.
In the same order, the values of `Cc1c(Nc2nc3ccccc3s2)nnc2c1CCCN2c1ccc(-c2cnn(C[C@]34C[C@]5(C)C[C@](C)(C3)C[C@@](OCCN(C)C)(C5)C4)c2C)c(C(=O)O)n1` [P27, 6-{3-[(1,3-benzothiazol-2-yl)amino]-4-methyl-6,7-dihydropyrido[2,3-c]pyridazin-8(5H)-yl}-3-[1-({3-[2-(dimethylamino)ethoxy]-5,7-dimethyladamantan-1-yl}methyl)-5-methyl-1H-pyrazol-4-yl]pyridine-2-carboxylic acid] are 0.22 nM, 0.3 nM and 0.26 nM.
The like results for `Cc1c(Nc2nc3ccccc3s2)nnc2c1CCCN2c1ccc(-c2cnn(C[C@]34C[C@]5(C)C[C@](C)(C3)C[C@@](OCCN3CCNCC3)(C5)C4)c2C)c(C(=O)O)n1` [P31, 6-[3-(1,3-benzothiazol-2-ylamino)-4-methyl-6,7-dihydro-5H-pyrido[2,3-c]pyridazin-8-yl]-3-[1-[[3,5-dimethyl-7-(2-piperazin-1-ylethoxy)-1-adamantyl]methyl]-5-methyl-pyrazol-4-yl]pyridine-2-carboxylic acid] were, in that order, 0.57 nM, 1.4 nM and 0.99 nM.
Turning to `Cc1c(Nc2nc3cc(F)ccc3s2)nnc2c1CCCN2c1ccc(-c2cnn(CC34CC5(C)CC(C)(C3)CC(OCCN3CCCC3)(C5)C4)c2C)c(C(=O)O)n1` [P63, 3-[1-[[3,5-dimethyl-7-(2-pyrrolidin-1-ylethoxy)-1-adamantyl]methyl]-5-methyl-pyrazol-4-yl]-6-[3-[(5-fluoro-1,3-benzothiazol-2-yl)amino]-4-methyl-6,7-dihydro-5H-pyrido[2,3-c]pyridazin-8-yl]pyridine-2-carboxylic acid], the IC50 is 3.73 nM under setting [1], 2.03 nM under setting [2] and 2.88 nM under setting [3].
For `Cc1cc(N(C)c2nc(C(=O)[O-])c(CCCOc3ccc(C#CC[N+](C)(C)Cc4ccc(O[C@@H]5O[C@H](C(=O)O)[C@@H](O)[C@H](O)[C@H]5O)c(NC(=O)CCNC(=O)CCOCCN5C(=O)CC(C)C5=O)c4)cc3F)s2)nnc1Nc1nc2ccccc2s1` (stereo partly drawn) [Ab C - L108A-P2], the IC50 reads like this: (H1650 3D, experiment n1, read-out: H1650 3D CTG IC50 n1) 2.1 nM; (H1650 3D, experiment n2, read-out: H1650 3D CTG IC50 n2) 0.97 nM; (H1650 3D, mean of n1 and n2, read-out: H1650 3D CTG IC50 Mean of n1 and n2) 1.54 nM.
Turning to `Cc1c(Nc2nc3ccccc3s2)nnc2c1CCCN2c1ccc(-c2cnn(C[C@]34C[C@]5(C)C[C@](C)(C3)C[C@@](OCCNCC(CO)CO)(C5)C4)c2C)c(C(=O)O)n1` [P23, 6-[3-(1,3-benzothiazol-2-ylamino)-4-methyl-6,7-dihydro-5H-pyrido[2,3-c]pyridazin-8-yl]-3-[1-[[3-[2-[[3-hydroxy-2-(hydroxymethyl)propyl]amino]ethoxy]-5,7-dimethyl-1-adamantyl]methyl]-5-methyl-pyrazol-4-yl]pyridine-2-carboxylic acid], the IC50 by setting is: under setting [1], 4 nM; under setting [2], 2.8 nM; under setting [3], 3.4 nM.
In the case of `Cc1c(Nc2nc3ccccc3s2)nnc2c1CCCN2c1ccc(-c2cnn(CC34CC5(C)CC(C)(CC(CCCNCC[C@H](O)CO)(C5)C3)C4)c2C)c(C(=O)O)n1` [P69, 6-[3-(1,3-benzothiazol-2-ylamino)-4-methyl-6,7-dihydro-5H-pyrido[2,3-c]pyridazin-8-yl]-3-[1-[[3-[3-[[(3S)-3,4-dihydroxybutyl]amino]propyl]-5,7-dimethyl-1-adamantyl]methyl]-5-methyl-pyrazol-4-yl]pyridine-2-carboxylic acid], the IC50 under setting [1] amounted to 3.78 nM, the IC50 under setting [2] stood at 5.56 nM and the IC50 under setting [3] worked out at 4.67 nM.
The like results for `CCN(CC)CC#Cc1ccc(OCCCc2sc(N3CCCc4c3nnc(Nc3nc5ccccc5s3)c4C)nc2C(=O)O)c(F)c1` [P14, 2-[3-(1,3-Benzothiazol-2-ylamino)-4-methyl-6,7-dihydro-5H-pyrido[2,3-c]pyridazin-8-yl]-5-[3-[4-[3-(diethylamino)prop-1-ynyl]-2-fluoro-phenoxy]propyl]thiazole-4-carboxylic acid] were, in that order, 1.9 nM, 5.4 nM and 3.65 nM.
Take `COc1ccc2sc(Nc3nnc4c(c3C)CCCN4c3ccc(-c4cnn(C[C@]56C[C@]7(C)C[C@](C)(C5)C[C@@](OCCN5CCCC5)(C7)C6)c4C)c(C(=O)O)n3)nc2c1` [P43, 3-[1-[[3,5-dimethyl-7-(2-pyrrolidin-1-ylethoxy)-1-adamantyl]methyl]-5-methyl-pyrazol-4-yl]-6-[3-[(5-methoxy-1,3-benzothiazol-2-yl)amino]-4-methyl-6,7-dihydro-5H-pyrido[2,3-c]pyridazin-8-yl]pyridine-2-carboxylic acid]: the IC50 is, setting by setting: under setting [1], 0.53 nM; under setting [2], 0.5 nM; under setting [3], 0.52 nM.
On to `Cc1c(Nc2nc3ccccc3s2)nnc2c1CCCN2c1ccc(-c2cnn(CC34CC5(C)CC(C)(C3)CC(OCCNCC(=O)O)(C5)C4)c2C)c(C(=O)O)n1` [P47, 6-[3-(1,3-benzothiazol-2-ylamino)-4-methyl-6,7-dihydro-5H-pyrido[2,3-c]pyridazin-8-yl]-3-[1-[[3-[2-(carboxymethylamino)ethoxy]-5,7-dimethyl-1-adamantyl]methyl]-5-methyl-pyrazol-4-yl]pyridine-2-carboxylic acid], for which the IC50 is, setting by setting: under setting [1], 6.54 nM; under setting [2], 7.35 nM; under setting [3], 6.95 nM.
For the compound `Cc1c(Nc2nc3ccccc3s2)nnc2c1CCCN2c1ccc(-c2cnn(CC34CC5(C)CC(C)(C3)CC(OCCN3CCCC3)(C5)C4)c2C)c(CO)n1` [P73, [6-[3-(1,3-benzothiazol-2-ylamino)-4-methyl-6,7-dihydro-5H-pyrido[2,3-c]pyridazin-8-yl]-3-[1-[[3,5-dimethyl-7-(2-pyrrolidin-1-ylethoxy)-1-adamantyl]methyl]-5-methyl-pyrazol-4-yl]-2-pyridyl]methanol], the IC50 was 8.6 nM under setting [1], 9.41 nM under setting [2] and 9.01 nM under setting [3].
